Reference: ChEMBL document CHEMBL5338805, “Discovery of the First Subnanomolar PPARα/δ Dual Agonist for the Treatment of Cholestatic Liver Diseases” (J Med Chem, 2023)
Calls of active or inactive are those of the source. No cut-off for these calls is given here.

Experiments:
[1] = Stability in human liver microsome assessed as half life at 1 uM by LC/MS-8050 analysis; assay type: ADME; conditions: liver microsomes
[2] = Anti-cholestatic activity in ANIT-induced C57BL/6Nifdc mouse model assessed as decrease in liver 12-OCDCA at 0.03 to 0.1 mg/kg, po upto 42 hrs measured after 48 hrs; assay type: ADME, organism-based; conditions: in vivo, 90 h, dose 0.03-0.1 mg/kg
[3] = Anti-cholestatic activity in ANIT-induced C57BL/6Nifdc mouse model assessed as downregulation of NF-kappaB signalling pathway at 0.03 to 0.1 mg/kg, po upto 42 hrs measured after 48 hrs; assay type: ADME, organism-based; conditions: in vivo, 90 h, dose 0.03-0.1 mg/kg
[4] = Anti-fibrosis activity in Ccl4-induced C57BL/6Nifdc mouse model assessed as reversal of increased Col1a1 administered orally for 3 weeks by Western blot analysis; assay type: ADME; conditions: in vivo, po, 504 h, dose 0.03-0.1 mg/kg
[5] = Acute toxicity in mouse assessed as moribundity administered at 2000 mg/kg, po for 14 days; assay type: organism-based; conditions: in vivo, 336 h, time 14 day
[6] = Down-streaming of Cyp27a1 gene expression in C57BL/6JNifdc mouse liver assessed as hepatic resorption of bile acid administered at 0.03 mg/kg, po for 3 days measured after 6 hrs of last administration by real-time PCR analysis; assay type: ADME, organism-based; conditions: in vivo, 78 h
[7] = Anti-cholestatic activity in ANIT-induced C57BL/6Nifdc mouse model assessed as decrease in liver alkaline phosphatase at 0.03 to 0.1 mg/kg, po upto 42 hrs measured after 48 hrs; assay type: ADME, organism-based; conditions: in vivo, 90 h, dose 0.03-0.1 mg/kg
[8] = Down-streaming of NTCP gene expression in C57BL/6JNifdc mouse liver assessed as hepatic resorption of bile acid administered at 0.03 to 0.1 mg/kg, po for 3 days measured after 6 hrs of last administration by real-time PCR analysis; assay type: ADME, organism-based; conditions: in vivo, 78 h, dose 0.03-0.1 mg/kg, time 3.25 day
[9] = AUC in fasted Sprague-Dawley rat at 10 mg/kg, po measured at 0.083 to 24 hrs by LC-MS/MS analysis; assay type: ADME, organism-based; design: time lower 0.083 hrs, dose 10 mg/kg, time upper 24 hrs, route po; conditions: in vivo
[10] = target: Vitamin D3 receptor (Homo sapiens) (UniProt P11473); assay: Agonist activity at VDR (unknown origin) transfected in african green monkey COS7 cells assessed transactivation incubated at 1 uM for 16 hrs by luciferase assay; assay type: cell-based
Vitamin D3 receptor (Homo sapiens), sequence (P11473 whole entry): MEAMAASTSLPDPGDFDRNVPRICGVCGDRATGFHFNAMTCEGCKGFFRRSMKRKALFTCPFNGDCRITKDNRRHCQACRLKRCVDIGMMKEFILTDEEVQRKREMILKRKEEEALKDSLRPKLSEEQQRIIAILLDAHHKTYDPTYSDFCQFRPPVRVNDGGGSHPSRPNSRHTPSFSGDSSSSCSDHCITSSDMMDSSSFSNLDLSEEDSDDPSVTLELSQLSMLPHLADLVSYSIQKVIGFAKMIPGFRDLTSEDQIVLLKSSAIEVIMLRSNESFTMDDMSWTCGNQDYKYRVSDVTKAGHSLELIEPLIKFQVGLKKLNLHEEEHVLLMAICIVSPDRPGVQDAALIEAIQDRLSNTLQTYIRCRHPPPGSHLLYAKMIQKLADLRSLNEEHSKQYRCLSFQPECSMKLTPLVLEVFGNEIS

[11] = target: Nuclear receptor ROR-alpha (Homo sapiens) (UniProt P35398); assay: Agonist activity at RORalpha (unknown origin) transfected in african green monkey COS7 cells assessed transactivation incubated at 1 uM for 16 hrs by luciferase assay; assay type: cell-based
Nuclear receptor ROR-alpha (Homo sapiens), sequence (P35398 whole entry): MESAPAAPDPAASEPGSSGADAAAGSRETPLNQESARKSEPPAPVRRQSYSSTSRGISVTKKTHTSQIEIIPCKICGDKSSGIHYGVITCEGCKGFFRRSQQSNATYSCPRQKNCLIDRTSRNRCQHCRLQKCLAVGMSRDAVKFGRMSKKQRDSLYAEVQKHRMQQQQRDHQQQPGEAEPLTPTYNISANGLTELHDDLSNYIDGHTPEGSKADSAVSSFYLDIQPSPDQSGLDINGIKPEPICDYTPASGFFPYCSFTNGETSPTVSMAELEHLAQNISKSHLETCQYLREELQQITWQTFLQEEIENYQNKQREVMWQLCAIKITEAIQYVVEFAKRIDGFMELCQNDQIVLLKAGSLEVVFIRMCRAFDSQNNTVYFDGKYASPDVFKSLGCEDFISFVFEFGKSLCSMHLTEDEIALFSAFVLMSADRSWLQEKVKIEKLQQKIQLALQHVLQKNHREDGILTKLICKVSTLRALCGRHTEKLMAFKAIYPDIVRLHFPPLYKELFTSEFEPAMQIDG

[12] = Upregulation of Mrp4 gene expression in C57BL/6JNifdc mouse liver assessed as increased efflux of bile acid administered at 0.03 to 0.1 mg/kg, po for 3 days measured after 6 hrs of last administration by real-time PCR analysis; assay type: ADME, organism-based; conditions: in vivo, 78 h, dose 0.03-0.1 mg/kg, time 3.25 day
[13] = target: Oxysterols receptor LXR-beta (Homo sapiens) (UniProt P55055); assay: Agonist activity at LXRbeta (unknown origin) transfected in african green monkey COS7 cells assessed transactivation incubated at 1 uM for 16 hrs by luciferase assay; assay type: cell-based
Oxysterols receptor LXR-beta (Homo sapiens), sequence (P55055 whole entry): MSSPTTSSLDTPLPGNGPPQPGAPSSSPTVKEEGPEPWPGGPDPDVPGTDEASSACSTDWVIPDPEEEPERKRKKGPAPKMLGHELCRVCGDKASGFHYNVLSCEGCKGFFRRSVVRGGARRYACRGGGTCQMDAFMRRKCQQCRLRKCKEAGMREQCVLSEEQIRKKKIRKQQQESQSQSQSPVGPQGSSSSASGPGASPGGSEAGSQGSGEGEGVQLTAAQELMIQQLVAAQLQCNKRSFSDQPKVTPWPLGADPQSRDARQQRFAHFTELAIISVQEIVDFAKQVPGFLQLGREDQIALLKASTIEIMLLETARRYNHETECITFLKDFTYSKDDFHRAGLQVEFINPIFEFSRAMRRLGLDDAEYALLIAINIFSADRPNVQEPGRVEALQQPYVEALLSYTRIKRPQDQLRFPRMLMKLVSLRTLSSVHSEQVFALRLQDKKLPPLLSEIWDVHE

[14] = Mutagenicity in Salmonella typhimurium TA100 measured at 0.21 to 16.67 mg/ml for 72 hrs by mini-Ames test; assay type: toxicity; conditions: salmonella enterica subsp. enterica serovar typhimurium, dose 0.21-16.67 mg/ml
[15] = target: Peroxisome proliferator-activated receptor alpha (Homo sapiens) (UniProt Q07869); assay: Binding affinity to PPARalpha LBD (unknown origin) assessed as thermal stability by measuring change in melting temperature by thermal shift assay; conditions: filed as agonist, dose 0.625-10 µM
Peroxisome proliferator-activated receptor alpha (Homo sapiens), sequence (Q07869 whole entry, the tested form may be a part): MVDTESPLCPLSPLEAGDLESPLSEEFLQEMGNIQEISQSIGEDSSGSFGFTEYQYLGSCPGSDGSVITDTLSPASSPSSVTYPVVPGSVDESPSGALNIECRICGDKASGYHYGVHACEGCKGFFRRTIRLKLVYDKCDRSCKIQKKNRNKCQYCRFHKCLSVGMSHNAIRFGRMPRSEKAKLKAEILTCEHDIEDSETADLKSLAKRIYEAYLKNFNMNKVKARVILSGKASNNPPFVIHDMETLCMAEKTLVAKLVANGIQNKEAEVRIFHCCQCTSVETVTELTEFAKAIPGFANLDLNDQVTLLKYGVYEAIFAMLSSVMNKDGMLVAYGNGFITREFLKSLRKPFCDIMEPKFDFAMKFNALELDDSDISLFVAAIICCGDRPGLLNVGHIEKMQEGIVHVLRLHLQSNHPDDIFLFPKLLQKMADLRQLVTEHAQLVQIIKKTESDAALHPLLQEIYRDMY

[16] = Anti-cholestatic activity in ANIT-induced C57BL/6Nifdc mouse model assessed as decrease in serum alanine aminotransferase at 0.03 to 0.1 mg/kg, po upto 42 hrs measured after 48 hrs; assay type: ADME, organism-based; conditions: in vivo, 90 h, dose 0.03-0.1 mg/kg
[17] = Down-streaming of Cyp7a1 gene expression in C57BL/6JNifdc mouse liver assessed as hepatic resorption of bile acid administered at 0.03 to 0.1 mg/kg, po for 3 days measured after 6 hrs of last administration by real-time PCR analysis; assay type: ADME, organism-based; conditions: in vivo, 78 h, dose 0.03-0.1 mg/kg, time 3.25 day
[18] = Anti-cholestatic activity in ANIT-induced C57BL/6Nifdc mouse model assessed as decrease in liver 3-H-7, 12-Dkca at 0.03 to 0.1 mg/kg, po upto 42 hrs measured after 48 hrs; assay type: ADME, organism-based; conditions: in vivo, 90 h, dose 0.03-0.1 mg/kg

Cc1cc(CN2C(=O)CN(c3ccc(C(F)(F)F)cc3)C2=O)cc(C)c1OC(C)(C)C(=O)O
half-life at 1 µM [1]: > 2 h
Activity [2]: Active
Activity [3]: Active
Activity [4]: Dose-Dependent Effect
Activity [5]: Non-Toxic
Activity [6]: Active
Activity [7]: Active
Activity [8]: Active
AUC [9]: 22300 ng·h/mL
Activity [10]: inactive
Activity [11]: inactive
Activity [12]: Active
Activity [13]: inactive
Activity [14]: Non-Toxic
deltaTm [15]: Dose-Dependent Effect
Activity [16]: Active
Activity [17]: Active
Activity [18]: Active
